The values below come from PMC13147314 (The Febs Journal, 2025).

One data set addresses T1, PsGK (Pseudoalteromonas sp. AS-131, UniProt H7CHS4, C325S).
T1 construct: gene glk; full length, cloned in pET-16b, expressed in E. coli BL21 (DE3), purified by ammonium sulfate and anion exchange (no tag mentioned); about 35 kDa subunit, 79 kDa homodimer by gel filtration
Put plainly: G6PD-coupled NADPH assay at […] nm, Lineweaver-Burk. The settings on record: 1, 25 and 40 °C. Format: biochemical.

The target in a further data set is T2, EcGK (Escherichia coli, UniProt P0A6V8).
T2 construct: gene glk; full length, cloned in pET-16b, expressed in E. coli BL21 (DE3), purified by ammonium sulfate and anion exchange (no tag mentioned); about 35 kDa subunit, 59 kDa homodimer by gel filtration
T2 sequence (P0A6V8 2-321): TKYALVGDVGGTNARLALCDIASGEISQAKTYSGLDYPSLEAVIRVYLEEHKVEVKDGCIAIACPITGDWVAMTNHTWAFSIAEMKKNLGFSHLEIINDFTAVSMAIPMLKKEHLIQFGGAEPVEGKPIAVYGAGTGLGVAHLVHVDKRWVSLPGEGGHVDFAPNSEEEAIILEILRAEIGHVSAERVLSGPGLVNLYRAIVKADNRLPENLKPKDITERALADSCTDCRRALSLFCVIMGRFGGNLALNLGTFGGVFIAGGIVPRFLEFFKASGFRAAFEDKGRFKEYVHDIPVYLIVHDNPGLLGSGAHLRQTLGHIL
Put plainly: G6PD-coupled NADPH assay at […] nm, Lineweaver-Burk. In kind it is biochemical. The settings on record: 25 °C, pH 7.6, 20 mM Tris-HCl, 10 mM MgCl2, co-substrate glucose, 1 mM DTT; also measured at 1 and 40 °C.

Substrate in the data set “purified protein”: Nc1ncnc2c1ncn2[C@@H]1O[C@H](COP(=O)(O)OP(=O)(O)OP(=O)(O)O)[C@@H](O)[C@H]1O
Put plainly: purified protein. In kind it is biochemical, Pseudoalteromonas sp. AS-131. Conditions: 25 °C, pH 7.6, 20 mM Tris-HCl, 10 mM MgCl2, co-substrate glucose, 1 mM DTT, also measured at 1 and 40 °C.

Data set [1] concerns the molecule itself. Nature of the data set: SEC; gel filtration on HiLoad 16/60 Superdex 200 prep grade; molecular weights estimated and compared with about 35 kDa by SDS/PAGE; monomers to dimer.

T1 sequence (H7CHS4 entry or part of it C325S): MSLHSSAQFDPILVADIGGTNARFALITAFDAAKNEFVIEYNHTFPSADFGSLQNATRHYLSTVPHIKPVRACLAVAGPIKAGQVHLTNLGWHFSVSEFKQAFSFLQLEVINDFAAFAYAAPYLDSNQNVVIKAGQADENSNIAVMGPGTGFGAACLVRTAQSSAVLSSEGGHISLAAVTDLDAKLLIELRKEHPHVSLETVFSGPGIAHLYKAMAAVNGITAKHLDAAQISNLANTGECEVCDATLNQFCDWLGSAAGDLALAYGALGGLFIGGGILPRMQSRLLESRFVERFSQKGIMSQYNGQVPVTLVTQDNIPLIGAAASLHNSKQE

For `Nc1ncnc2c1ncn2[C@@H]1O[C@H](COP(=O)(O)OP(=O)(O)OP(=O)(O)O)[C@@H](O)[C@H]1O` [ATP], the K m entry on PsGK (pH 7.6, 10 mM MgCl2, co-substrate glucose) was “the catalytic efficiency (k cat/K m) of C325S exceeded that of WT”; at EcGK it was 1110 ± 80 µM.

For the molecule `OC[C@H]1OC(O)[C@H](O)[C@@H](O)[C@@H]1O` (stereo partly drawn) [glucose], the K m result at PsGK (pH 7.6, 10 mM MgCl2, co-substrate ATP) is reported as “the catalytic efficiency (k cat/K m) of C325S exceeded that of WT”.

B1: glucokinase from Pseudoalteromonas sp. AS-131 wild-type (enzyme, UniProt H7CHS4 1-332, looked up)
chain: MSLHSSAQFDPILVADIGGTNARFALITAFDAAKNEFVIEYNHTFPSADFGSLQNATRHYLSTVPHIKPVRACLAVAGPIKAGQVHLTNLGWHFSVSEFKQAFSFLQLEVINDFAAFAYAAPYLDSNQNVVIKAGQADENSNIAVMGPGTGFGAACLVRTAQSSAVLSSEGGHISLAAVTDLDAKLLIELRKEHPHVSLETVFSGPGIAHLYKAMAAVNGITAKHLDAAQISNLANTGECEVCDATLNQFCDWLGSAAGDLALAYGALGGLFIGGGILPRMQSRLLESRFVERFSQKGIMSQYNGQVPVTLVTQDNIPLIGAAACLHNSKQE
notes: glucokinase (PsGK) of Pseudoalteromonas sp; AS-131, UniProt H7CHS4; amplified with primers that carry the start and the stop codon and cloned into pET-16b; also called PsGK; PsGK WT; source: E. coli BL21 (DE3), purified (ammonium sulfate fractionation, anion exchange HiTrap Q HP)
B1: the Km in the data set “purified protein” came to 1550 ± 170 µM. Moreover, in data set [1], the “stoichiometry N” value is 2.

B2: glucokinase from Escherichia coli wild-type (enzyme, Escherichia coli K-12)
chain: T2 sequence (P0A6V8 2-321)
notes: glucokinase (EcGK) of Escherichia coli K-12, encoded by glk, UniProt P0A6V8; the gene was amplified from genomic DNA and cloned into pET-16b; also called EcGK; EcGK WT; source: E. coli BL21 (DE3), purified (ammonium sulfate fractionation, anion exchange HiTrap Q HP)
On to B2, for which the “stoichiometry N” value in data set [1] is 2.

What is called Km is the substrate concentration at which the rate is half of its maximum. Broadly, the stoichiometry N is the number of molecules, sites or subunits per partner or assembly.
